IC50 and Kd data for four compounds are collected here from ChEMBL document CHEMBL4265913, “Role of p53 circuitry in tumorigenesis: A brief review” (Eur J Med Chem, 2018).

Assay [1] is described as follows: Antiproliferative activity against human LAN5 cells after 72 hrs by XTT assay. It is filed as functional, cell-based. Conditions: LA-N-5, 72 h. A general note: Formazan colour is commonly taken as a measure of viable cells.
Assay [2] relates to IMR-32. Kind of assay: Antiproliferative activity against human IMR32 cells after 72 hrs by XTT assay. It counts as functional, cell-based. As to conditions: IMR-32, 72 h.
Assay [3] relates to SH-SY5Y. Description: Antiproliferative activity against human SH-SY5Y cells after 72 hrs by XTT assay. It is filed as functional, cell-based.
Assay [4] has as its system SK-N-SH. Kind of assay: Antiproliferative activity against human SK-N-SH cells after 72 hrs by XTT assay. It is filed as functional, cell-based.
The test system of assay [5] is IMR-5. Description: Antiproliferative activity against human IMR5 cells after 72 hrs by XTT assay. It is filed as functional, cell-based. Conditions: IMR-5, 72 h.
In assay [6] the test system is U2OS. Description: Antiproliferative activity against human U2OS cells after 72 hrs by MTT assay. It counts as functional, cell-based.
Assay [7] relates to PC-3. Kind of assay: Growth inhibition of human PC3 cells harboring p53 deletion mutant after 4 days by WST8 assay. It counts as functional, cell-based. As to conditions: PC-3, 96 h.
Assay [8] concerns the target E3 ubiquitin-protein ligase Mdm2 (Homo sapiens, UniProt Q00987). Description: Binding affinity to recombinant human MDM2 (1 to 118 residues) expressed in Escherichia coli BL21 (DE3) assessed as reduction in tryptophan fluorescence by microscale thermophoresis method. (Microscale thermophoresis detects binding through changes in fluorescence in a small temperature gradient.)

Sequence of E3 ubiquitin-protein ligase Mdm2 (Q00987 whole entry, the tested form may be a part): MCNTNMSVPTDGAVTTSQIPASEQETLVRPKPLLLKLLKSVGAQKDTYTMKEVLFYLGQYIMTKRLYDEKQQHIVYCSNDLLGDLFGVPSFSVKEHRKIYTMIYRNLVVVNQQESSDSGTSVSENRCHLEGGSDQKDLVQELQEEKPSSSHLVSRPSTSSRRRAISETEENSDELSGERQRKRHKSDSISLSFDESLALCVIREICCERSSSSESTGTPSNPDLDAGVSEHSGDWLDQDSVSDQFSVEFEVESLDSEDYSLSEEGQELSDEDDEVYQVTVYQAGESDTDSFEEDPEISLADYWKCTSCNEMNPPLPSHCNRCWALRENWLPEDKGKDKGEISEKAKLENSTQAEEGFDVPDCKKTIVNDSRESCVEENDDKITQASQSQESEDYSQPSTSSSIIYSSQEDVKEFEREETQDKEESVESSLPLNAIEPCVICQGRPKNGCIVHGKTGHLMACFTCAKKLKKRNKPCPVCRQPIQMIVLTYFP

As for `CC1(C)CCC2(CC1)N[C@H](C(=O)N[C@H]1CC[C@H](C(N)=O)OC1)[C@@H](c1ccnc(Cl)c1F)[C@@]21C(=O)Nc2cc(Cl)ccc21`, the half-maximal inhibitory concentration (IC50) in assay [1] came out at 44.1 nM; in assay [2] it was 52.6 nM; in assay [3] it was 17.7 nM; in assay [4], 21.9 nM; in assay [5], 25.7 nM.
The compound `Clc1ccc(C2N=C(c3ccccc3)c3cc(Cl)ccc3-n3cnnc32)cc1` (stereo not drawn) registered an IC50 in assay [6] of 4170 nM.
Consider `CN(C)C(=O)[C@@H]1N[C@H](CC(C)(C)C)[C@]2(C(=O)Nc3cc(Cl)ccc32)[C@H]1c1cccc(Cl)c1`, for which the IC50 in assay [7] is 22500 nM.
For `CN1C(=O)C(Cc2ccc(Cl)cc2)=C(c2c[nH]c3cc(Cl)ccc23)[C@]1(O)Cc1ccc(Cl)cc1`, the dissociation constant (Kd) in assay [8] stood at 500 nM.

One may read the IC50 as the concentration that inhibits the measured activity by half. A word on the Kd: it is the equilibrium constant for the complex coming apart.
